Data published in patent US6576430B1, “Detection of ligands by refractive surface methods” (Becton, Dickinson and Company, priority 2000, dated 2003).

What was measured:
[1] = target: T1, Glucose/Galactose Binding Protein (GGBP) (Escherichia coli, UniProt P0AEE5); assay: SPR (BIACORE) response of saccharides injected over immobilized GGBP surface; conditions: surface bearing 2000 RU of GGBP; blank subtracted
T1 construct: made in house
Experimental: Glucose/Galactose Binding Protein (GGBP) was prepared from osmotic shock lysates and coupled to the CM5 chip surface at 20 μM at pH 4.5 in 10 mM NaOAc using standard NHS/EDC procedures. Ethanolamine (1.0 M, pH 8.0) was used to quench unreacted esters and was also found to be effective at removing non-covalently adsorbed protein from the chip surface. Buffer flow was maintained overnight to remove additional non-covalently bound GGBP from the surface before ligand injections were performed. A surface bearing 2000 RU of GGBP was used for experiments. Ligands were prepared in dH2O at the desired concentrations. Injections were 20 μL at a flow rate of 10 μL/min (2 minute contact time). Report points were collected at 100 seconds post injection. Report points from injections over a blank surface were subtracted. Typical injections over the blank control surface gave minimal (<5 RU) signals, but were subtracted nonetheless. Ligand injections were repeated 3-5 times and the order of injection was reversed periodically. Data points were discarded for data collected during obvious anomolies, such as air bubbles. Remaining data was subjected to Q tests and error represents single standard deviations. A single set of sugar solutions was used for injection over the control and test surfaces. Running buffer was HBS-EP (BIACORE) supplemented with 5 mM CaCl2. Bound GGBP ligands were removed either by injection of 100 mM α-methyl mannoside in 10 mM NaOAc pH 4.5 or by 500-1000 seconds of running buffer wash.

[2] = target: T2, Tissue transglutaminase (tTG) (Cavia cutleri, UniProt P08587); assay: SPR (BIACORE) detection of calcium binding to immobilized tissue transglutaminase
T2 construct: purchased Sigma
T2 sequence (P08587 1-690): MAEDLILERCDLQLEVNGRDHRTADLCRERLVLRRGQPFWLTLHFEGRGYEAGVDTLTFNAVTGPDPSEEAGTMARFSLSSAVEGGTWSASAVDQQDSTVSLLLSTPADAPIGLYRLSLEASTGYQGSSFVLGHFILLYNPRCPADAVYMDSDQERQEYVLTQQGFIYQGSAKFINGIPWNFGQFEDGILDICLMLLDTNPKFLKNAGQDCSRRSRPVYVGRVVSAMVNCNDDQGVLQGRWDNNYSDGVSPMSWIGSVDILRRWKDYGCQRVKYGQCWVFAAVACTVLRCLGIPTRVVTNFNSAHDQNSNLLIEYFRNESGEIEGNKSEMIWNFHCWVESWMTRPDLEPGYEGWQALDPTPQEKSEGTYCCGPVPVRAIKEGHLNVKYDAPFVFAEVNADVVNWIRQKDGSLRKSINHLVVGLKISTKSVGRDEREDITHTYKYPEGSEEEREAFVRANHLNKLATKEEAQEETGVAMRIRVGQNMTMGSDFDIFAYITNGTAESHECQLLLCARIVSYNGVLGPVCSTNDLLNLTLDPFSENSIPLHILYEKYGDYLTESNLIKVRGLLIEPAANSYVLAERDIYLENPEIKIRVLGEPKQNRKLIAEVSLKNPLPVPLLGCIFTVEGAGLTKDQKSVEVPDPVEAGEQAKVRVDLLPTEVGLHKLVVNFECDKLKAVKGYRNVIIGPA
Experimental: Tissue transglutaminase (tTG) was obtained from Sigma and prepared at 1.3 mg/mL at pH 4.5 in 10 mM NaOAc. A surface bearing 2500 RU of tTG was prepared using standard EDC/NHS coupling chemistry and was used for all experiments. Ethanolamine (1.0 M, pH 8.0) was used to quench unreacted esters. Calcium chloride was prepared in dH2O at the desired concentrations. Injections were 20 μL at a flow rate of 10 μL/min (2 minute contact time). Report points were collected at 100 seconds post injection. Report points from injections over a blank surface were subtracted. Typical injections over the blank control surface gave minimal (<5 RU) signals, but were subtracted nonetheless. Injections were randomized relative to concentration. Data points were discarded for data collected during obvious anomalies, such as air bubbles. Running buffer was HBS-EP (BIACORE) without calcium supplementation. Calcium was removed from transglutaminase by injection of 5 mM EDTA pH 8.0. After EDTA injection the surface was allowed to stabilize for 300 seconds before additional calcium injections.

[3] = target: T3, Bovine brain calmodulin (CaM) (Bos taurus, UniProt P62157); assay: SPR (BIACORE) detection of calcium binding to immobilized calmodulin
T3 construct: Bovine brain calmodulin (CaM) was obtained from Calbiochem; purchased Calbiochem; host or cells: bovine brain
Experimental: Bovine brain calmodulin (CaM) was obtained from Calbiochem and immobilized onto carboxymethyl dextran gold surfaces using standard BIACORE EDC/NHS coupling chemistry. HBS-EP was used as an eluent. CaM was injected at 0.5 mg/mL in 10 mM sodium acetate, pH 4.0 (54 minute injection). This procedure immobilized approximately 480 RU of calmodulin. During the immobilizations, the flow rate was 5 μL/min. For some experiments, the BIACORE™ 3000 was used. For others, a BIACORE™ Upgrade was used. In general, injections were run at a flow rate of 5 or 10 μL/min, in HBP-EP buffer. Varying concentrations of CaCl2 in HBS-EP (3.5-50 mM) were injected on the CaM and blank surfaces.

tTG = target: T4, tTG (Homo sapiens, UniProt P21980); conditions: reported value; read-out: reported Kd of calcium for the protein; cited from earlier work
T4 sequence (P21980 1-687): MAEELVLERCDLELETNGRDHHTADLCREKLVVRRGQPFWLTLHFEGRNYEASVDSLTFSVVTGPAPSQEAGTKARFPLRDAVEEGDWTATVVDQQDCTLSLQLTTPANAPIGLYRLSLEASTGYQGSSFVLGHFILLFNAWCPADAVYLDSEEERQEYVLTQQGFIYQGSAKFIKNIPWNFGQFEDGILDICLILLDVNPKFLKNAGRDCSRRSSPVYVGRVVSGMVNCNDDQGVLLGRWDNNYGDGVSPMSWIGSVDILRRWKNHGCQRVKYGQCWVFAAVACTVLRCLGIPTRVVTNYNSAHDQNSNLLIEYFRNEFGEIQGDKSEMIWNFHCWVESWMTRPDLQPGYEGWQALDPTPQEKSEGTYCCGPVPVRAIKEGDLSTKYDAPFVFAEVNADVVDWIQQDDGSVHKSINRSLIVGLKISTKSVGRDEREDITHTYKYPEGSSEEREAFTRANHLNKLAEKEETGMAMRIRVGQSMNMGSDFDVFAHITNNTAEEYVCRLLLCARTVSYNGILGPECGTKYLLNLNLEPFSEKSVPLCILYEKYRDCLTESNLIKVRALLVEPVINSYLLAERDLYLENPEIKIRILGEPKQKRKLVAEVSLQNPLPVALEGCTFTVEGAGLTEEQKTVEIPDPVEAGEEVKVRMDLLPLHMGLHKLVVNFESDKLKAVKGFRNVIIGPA

MBP = target: T5, MBP (Escherichia coli, UniProt P0AEX9); assay: SPR (BIACORE) detection of maltose binding to immobilized MBP
T5 construct: made in house
Experimental: MBP was prepared from osmotic shock lysates and coupled to a CM5 (carboxymethyl dextran) chip (BIACORE) using standard EDC/NHS procedures performed with reagents from the BIACORE EDC/NHS coupling kit. MBP was 10 μM at pH 4.5 in 10 mM NaOAc. Hepes Buffered Saline-EP (HBS-EP: 0.01 M HEPES pH 7.4, 0.15 M NaCl, 3 mM EDTA, 0.005% surfactant P20; BIACORE™ AB) was used as an eluent (O'Shannessy et al., 1992) supplemented with 5 mM CaCl2. Ethanolamine (1.0 M, pH 8.0) was used to quench unreacted esters and was also found to be effective at removing non-covalently adsorbed protein from the chip surface. […] Report points were collected at 100 seconds post injection. Report points from injections over a blank surface were subtracted. Data points were discarded for data collected during obvious anomalies, such as air bubbles. Running buffer was HBS-EPA (BIACORE) supplemented with 5 mM CaCl2.
After regeneration the surface was allowed to stabilize for 300 seconds before additional ligand injections.

T1 sequence (P0AEE5 24-332 limits assumed): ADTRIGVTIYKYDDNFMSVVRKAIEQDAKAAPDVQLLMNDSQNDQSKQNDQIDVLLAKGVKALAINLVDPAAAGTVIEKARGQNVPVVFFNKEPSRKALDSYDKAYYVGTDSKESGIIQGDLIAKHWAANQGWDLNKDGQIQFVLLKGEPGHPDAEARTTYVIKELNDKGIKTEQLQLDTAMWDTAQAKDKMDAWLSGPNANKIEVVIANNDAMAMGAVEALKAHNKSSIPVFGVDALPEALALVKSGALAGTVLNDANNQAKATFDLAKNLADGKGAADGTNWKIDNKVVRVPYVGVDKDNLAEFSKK

**Q.** With cyclodextrins as the molecule, how does the “response in relative RU on injection over the GGBP surface” value (“response in relative RU on injection” below) [1] read?
**A.** negligible or slightly positive increase in relative RU

**Q.** With [Ca+2].[Cl-].[Cl-] [calcium, Calcium chloride] as the molecule, how does the “change in SPR response on calcium binding to tTG” value ([2]; SPR, immobilized tTG) read?
**A.** positive change in response

**Q.** What about the EC50 ([2]; surface bearing 2500 RU of tTG, running buffer without calcium, read-out: half-maximal response of tTG) of the same molecule?
**A.** 500 µM

**Q.** What about the “signal over the CaM surface during injection” value ([3]; 50 mM CaCl2, blank surface gave 1502 RU) of the same molecule?
**A.** 1350 RU

**Q.** And the “change in SPR signal on CaM surface relative to blank surface” value ([3]; 3.5-50 mM CaCl2 in HBS-EP, approximately 480 RU of calmodulin)?
**A.** reduction in signal

**Q.** And the Kd (tTG)?
**A.** ~1000 µM

**Q.** For maltotriose, which “response in relative RU on injection” value [1] is on record?
**A.** negligible or slightly positive increase in relative RU

**Q.** With OC[C@H]1O[C@H](O[C@H]2[C@H](O)[C@@H](O)C(O)O[C@@H]2CO)[C@H](O)[C@@H](O)[C@@H]1O (mixture of isomers) [maltose] as the molecule, how does the “change in RUs on injection over the MBP surface” value (MBP) read?
**A.** reproducible net decrease in RUs

**Q.** With OC[C@H]1O[C@H](O[C@H]2[C@H](O)[C@@H](O)[C@@H](O[C@H]3[C@H](O)[C@@H](O)[C@@H](O[C@H]4[C@H](O)[C@@H](O)C(O)O[C@@H]4CO)O[C@@H]3CO)O[C@@H]2CO)[C@H](O)[C@@H](O)[C@@H]1O (stereo partly drawn) [maltotetraose] as the molecule, how does the “response in relative RU on injection” value [1] read?
**A.** negligible or slightly positive increase in relative RU
